From US9233903B2, “Pharmaceutical substances on the basis of mitochondria-addressed antioxidants” (Mitotech SA, priority 2009, dated 2016)

Tests used:
[1] = system: E. coli MG1655 pLUX::PkatG
Excerpt: (§1) To test pro-oxidant and antioxidant properties of mitochondria-addressed compounds of general formula (I), a method for determining oxidative stress in E. coli cells was developed. For this purpose, a biosensor system was created based on luxAB genes encoding bacterial luciferases to study effect of penetrating ions on oxidative stress in a bacterial cell.
The lux-biosensors were developed on the basis of these inducible promoters.
(§2) All the promoters used in the method, with corresponding regulatory regions, were obtained from the genome of the E. coli K12 MG1655 bacteria by the PCR method with the use of specific synthesized primers. A non-promoter vector with the pBR322 replicon and bla gene responsible for resistance to ampicillin (selective marker) was used as a vector. The promoter region was embedded into the plasmid at the EcoRI-BamHI sites. The lux operon of Ph. luminescens consisting of five genes, luxCDABE, was selected as the lux cassette.
(§3) In the first phase of testing, conditions for oxidative stress induction at which the maximum induction of luminescence occurs, were selected.

[2] = Penetrating ability on artificial black (bilayer phospholipid) membranes, membrane potential; type: physicochemical; conditions: for penetrating ability: bilayer membrane, comparison between compounds; for membrane potential (Δψ) generated: concentration range from 10^−7 to 10^−6 M, FIG. 2B
Excerpt: To test the penetrating ability of mitochondria-addressed compounds of structure (I), a method is used based on the ability of ions to penetrate through the phospholipid membrane bilayer moving along the concentration gradient. […] If a charged substance can penetrate through the bilayer membrane, its rapid diffusion out of the chamber having a high concentration of the substance, to the chamber having a low concentration of the substance, occurs, and thus a membrane potential difference is created. For ions which are carrying one charge and able to easily penetrate through the membrane, a 10-fold concentration gradient allows for creation of a potential of 60 mV (according to the Nernst equation). This method was used in various studies of the ability of ions to pass through the lipid bilayer of the membrane.

[3] = system: gramicidin channels; test: Protection of gramicidin channels in bilayer membrane, damage by FeSO4, ascorbate and tert-butyl hydroperoxide; type: biochemical; conditions: FeSO4, ascorbate, tert-butyl hydroperoxide; FIG. 3B
Excerpt: A method was developed which allows the study of the antioxidant activity of compounds in a simple system consisting of a bilayer membrane, […]). […]

[4] = system: HeLa and normal human diploid fibroblasts; test: Protection of cells against H2O2-induced death (apoptosis), Hoechst/PI counting; type: cell-based; conditions: incubation with the cells for 5 to 7 days
Protocol: Testing of the antioxidant capacity of the compounds was performed using the methods of cytofluometry and fluorescence microscopy.
In preliminary experiments for each cell culture, the optimal concentration of H2O2 which causes significant (60% to 80%) cell apoptosis with no visible signs of necrosis was selected. To determine the chromatin condensation and fragmentation which occurs in apoptotic cells, the fluorescent dye Hoechst was used. The dye at a concentration of 1 μg/ml was added to live or fixed cells at the end of a 30 min incubation. To determine necrosis, the fluorescent dye propidium iodide (PI) at a concentration of 2 μg/ml was added to non-fixed cells. The percentage of apoptotic and necrotic cells was determined by counting the number of cells with fragmented nuclei and cells permeable to propidium iodide, respectively.

[5] = system: HeLa cells; test: H2O2-induced oxidative stress in cells, DCF-DA cytofluorimetry; type: cell-based, human; conditions: incubation for 1 to 5 hours
Protocol: To measure the level of oxidative stress stimulated by H2O2, cells were stained with fluorescent dye DCF-DA (2′,7′-dichloro-dihydrofluorescein diacetate), and the level of fluorescence of the dye was measured with a cytofluorimeter.
Estimates were made on the basis of seven experiments. Data were estimated with respect to a group of the control cells lying on the diagram in the area of low DCF-DA fluorescence (50% of the population), this group of cells was taken as 100% and indicators for every action were estimated relative to this group.

[6] = system: mitochondria; test: Accumulation in mitochondria measured with tetraphenylphosphonium-selective electrode; type: in vitro ADME; conditions: FCCP uncoupler; FIG. 4
Protocol: The ability of compounds of general formula (I) to accumulate in mitochondria was tested using a tetraphenylphosphonium-selective electrode. The method is used for compounds of general formula (I) in which the lipophilic cation tetraphenylphosphonium is used as the target group. With this electrode, it is possible to measure distribution of tetraphenylphosphonium cation (or compounds which comprise this cation) between the mitochondrial matrix and the medium.

[7] = Solubility in aqueous solutions
[8] = system: E. coli MG1655 pLUX::PsoxS; type: cell-based
Excerpt: as §1
The PsoxS promoter is activated when superoxide ion-radical appears in the environment. The lux-biosensors were developed on the basis of these inducible promoters.
as §2, §3

[9] = system: gramicidin channels; test: Protection of gramicidin channels in bilayer membrane, damage by photoactivated phthalocyanine; type: biochemical; conditions: photoactivation of phthalocyanine; FIG. 3A
Excerpt: A method was developed which allows the study of the antioxidant activity of compounds in a simple system consisting of a bilayer membrane, a conducting protein gramicidin and a photosensitizer (Mito Tracker Red, Invitrogen, Carlsbad, Calif.), thrice sulfonated aluminum phthalocyanine or zinc phthalocyanine). The method uses the ability of reactive oxygen species generated by photoactivation of the photosensitizer molecules to damage gramicidin channels, resulting in a sharp decrease in the conducting ability of the bilayer membrane.

## OO [Compound H2O2, hydrogen peroxide]
[1]; FIG. 10A
  time at which induction of luminescence becomes evident: ≤ 15 min
  time to maximum luminescence: one hour
[1]; optimal concentrations of H2O2
  ratio of luminescence intensity between control cells and induced cells: 1/80

## COC1=C(OC)C(=O)C(CCCCCCCCCC[P+](c2ccccc2)(c2ccccc2)c2ccccc2)=C(C)C1=O [MitoQ]
[2]
  penetrating ability: less penetrating abilities compared to SkQ3 or SkQR1
[3]
  antioxidant efficiency, protection of gramicidin channels: less efficient antioxidants
[4]
  resistance of cells to H2O2: increase resistance of cells to H2O2
[5]
  effect on H2O2-induced oxidative stress in cells: did not prevent

## CC1=C(C)C(=O)C(CCCCCCCCCC[P+](c2ccccc2)(c2ccccc2)c2ccccc2)=CC1=O [SkQ1, [10-(4,5-dimethyl-3,6-dioxo-cyclohexa-1,4-dien-1-yl)decyl]-triphenylphosphonium bromide]
[6]
  energy-independent accumulation in mitochondria: independent of the degree of energization of the mitochondria

## CC1=C(C)C(=O)C(CCCCCCCCCC[P+](c2ccccc2)(c2ccccc2)c2ccccc2)=C(C)C1=O [SkQ3]
[3]
  antioxidant efficiency, protection of gramicidin channels: less efficient antioxidants

## CC1=C(C)C(=O)C(CCCCC[P+](c2ccccc2)(c2ccccc2)c2ccccc2)=CC1=O [SkQ5]
[6]
  energy-independent accumulation in mitochondria: reduced

## COc1ccc2c(CC(=O)OCCCCCCCC3=CC(=O)C(C)=C(C)C3=O)c3[n+](cc2c1OC)CCc1cc2c(cc1-3)OCO2 [SkQB1, 13-[7-(4,5-dimethyl-3,6-dioxo-cyclohexa-1,4-dien-1-yl)heptyloxycarbonyl-methyl]berberine]
[2]
  membrane potential (Δψ) generated: almost the same Δψ as SkQ1
[7]
  solubility in aqueous solutions: poor solubility

## COc1cc2c(cc1OC)-c1c(CC(=O)OCCCCCCCC3=CC(=O)C(C)=C(C)C3=O)c3ccc(OC)c(OC)c3c[n+]1CC2 [SkQBP1, 13-[7-(4,5-dimethyl-3,6-dioxo-cyclohexa-1,4-dien-1-yl)heptyloxycarbonyl-methyl]palmatine]
[2]
  membrane potential (Δψ) generated: almost the same Δψ as SkQ1

## CC/N=c1/cc2oc3cc(NCC)c(C)cc3c(-c3ccccc3C(=O)OCCCCCCCCCCC3=CC(=O)C(C)=C(C)C3=O)c-2cc1C [SkQR1]
[2]; FIG. 2A
  concentration above which compound ceases to obey the Nernst equation (membrane damage): higher than 5×10^−5 M
[2]
  penetrating ability: higher penetrating ability
[5]
  effect on H2O2-induced oxidative stress in cells: has antioxidant activity

## C[n+]1ccc(-c2cc[n+](C)cc2)cc1 [paraquat]
[8]; FIG. 10B
  time at which induction of luminescence becomes evident: 15 to 20 min
  time to maximum luminescence: two hours
[8]; optimal concentrations of paraquat
  ratio of luminescence intensity between control cells and induced cells: 1/100

## superoxide dismutase
[9]
  prevention of fall in membrane conductance (gramicidin channels): effectively blocked
